Measured values published in publication PMC6921279 (Frontiers in Endocrinology, 2019).

Columns and labels:
[1] = test system: CRF1R-mediated ERK1/2 phosphorylation; assay: Modulation of CRF-stimulated ERK1/2 phosphorylation in COS-7 cells expressing HA-CRF1R; type: cell-based
Protocol: (§1) Plasmid pRK5 encoding the carboxyl terminus of βARK that contains its βγ-binding domain (ct-βARK) was kindly provided by Dr. W. Koch (Center for Translational Medicine, Temple University, Philadelphia, PA), which is a scavenger for G protein βγ subunits ([25]). […] Plasmid pUSEamp encoding dominant-negative Akt-K179M (dn-Akt) was from Upstate Biotechnology (Lake Placid, NY).
(§2) COS-7 cells (from the American Type Culture Collection) were cultured at 37°C in a humidified atmosphere of 95% air, 5% CO2, in DMEM supplemented with 10% FBS, 100 μg/ml streptomycin, and 100 units/ml penicillin (COS-7 growth medium). Transient transfections were performed using LipofectAMINE (Life Technologies: Gaithersburg, MD) as described previously ([27]). Cells were seeded at 8 × 10^5 cells/10-cm dish in COS-7 medium and cultured for 3 days before transfection. COS-7 cells were transfected in 5 ml/dish OptiMEM containing 10 μg/ml LipofectAMINE with empty vector, pcDNA3 encoding the HA-CRF1R or the HA-CRF1R-Δ386 mutant. […] After replacing the transfection medium with fresh growth medium, transfected COS-7 cells were cultured for 1 day. Subsequently, cells were re-seeded in 6-well plates and cultured for an additional day prior to the experiment.
(§3) The protocols for measuring total and phosphorylated ERK1/2, c-Src, PYK2, Akt, and EGFR have been previously published ([28], [29]). After cells were cultured to 60–70% confluence, they were serum-deprived for 24 h. On the day of the experiment, cells were treated with the indicated ligands and inhibitors. […] After treatment, cells were placed on ice, the media was aspirated, and the cells were washed twice with ice-cold PBS and lysed in 100 μl of Laemmli sample buffer 1X. The lysates were briefly sonicated, heated at 95°C for 5 min, and centrifuged for 5 min at 14,000 rpm. Resulting supernatants were loaded in separate lanes of a 10% SDS-PAGE gels and electrophoresed. Next, Western transfer on to PDVF membranes was completed. The Western blots were then probed with specific antibodies targeting phosphorylated and non-phosphorylated forms of ERK1/2, c-Src, PYK2, Akt, and EGFR for primary immunodetection. After blots were probed with horseradish peroxidase-conjugated secondary antibody, protein bands were visualized with enhanced chemiluminescence ECL reagent (Amersham Pharmacia Biotech, Piscataway, NJ or Pierce Biotechnology, Rockford, IL) and scanned using the GS-800 Calibrated Imaging Densitometer (Bio-Rad). The labeled bands were quantified using the Quantity One 4.6.3 software program (Bio-Rad).
(§4) Total cell lysates were separated by SDS-PAGE and analyzed by immunoblotting with anti-p-ERK1/2 Thr^202/Tyr^204, as described in Materials and Methods. ERK1/2 phosphorylation was quantitated by densitometry, and mean values were plotted from five independent experiments.
(§5) Total cell lysates were separated by SDS-PAGE and analyzed by immunoblotting with anti-p-ERK1/2 Thr^202/Tyr^204 (A–D) or anti-p-EGFR Tyr^1068 (E), as described in Materials and Methods. ERK1/2 and EGFR phosphorylation were quantitated by densitometry, and mean values were plotted from three to five independent experiments.
Total cell lysates were separated by SDS-PAGE and analyzed by immunoblotting with anti-p-ERK1/2 Thr^202/Tyr^204, as described in Materials and Methods. ERK1/2 phosphorylation was quantitated by densitometry, and mean values were plotted from three to five independent experiments.

[2] = target: HA-epitope tagged human CRF1 receptor (human); assay: co-IP; HA-CRF1R immunoprecipitated with anti-HA monoclonal antibody (HA.11) and protein A/G PLUS-Agarose from 1% Nonidet P-40 lysates (50 mM Tris-HCl, 150 mM NaCl, pH 7.4) of transfected COS-7 cells, serum-deprived 24 h, untreated or treated with 100 nM CRF for 10 min at 37°C; blots probed for EGFR and HA, stripped and reprobed for c-Src; densitometry
[3] = target: epidermal growth factor receptor (African green monkey (endogenous in COS-7))
[4] = test system: EGF-stimulated ERK1/2 phosphorylation; assay: Modulation of EGF-stimulated ERK1/2 phosphorylation in COS-7 cells; type: cell-based; conditions: GM6001 10 μM, 30 min pretreatment; 10 ng/ml EGF, 10 min
Protocol: as §2, with “Subsequently, cells were re-seeded in 6-well plates and cultured for an additional day prior to the experiment.” left out
(§6) The protocols for measuring total and phosphorylated ERK1/2, c-Src, PYK2, Akt, and EGFR have been previously published ([28], [29]). […] The labeled bands were quantified using the Quantity One 4.6.3 software program (Bio-Rad).
as §5, with “Figure 3 Involvement of EGFR transactivation in CRF-stimulated ERK1/2 phosphorylation. […] Total” for “Total”, “experiments. […]” for “experiments.”

[5] = test system: PMA-stimulated ERK1/2 phosphorylation; assay: Modulation of PMA-stimulated ERK1/2 phosphorylation in COS-7 cells; type: cell-based; conditions: GM6001 10 μM, 30 min pretreatment; 100 nM PMA, 15 min
Protocol: COS-7 cells (from the American Type Culture Collection) were cultured at 37°C in a humidified atmosphere of 95% air, 5% CO2, in DMEM supplemented with 10% FBS, 100 μg/ml streptomycin, and 100 units/ml penicillin (COS-7 growth medium). Transient transfections were performed using LipofectAMINE (Life Technologies: Gaithersburg, MD) as described previously ([27]). Cells were seeded at 8 × 10^5 cells/10-cm dish in COS-7 medium and cultured for 3 days before transfection. COS-7 cells were transfected in 5 ml/dish OptiMEM containing 10 μg/ml LipofectAMINE with empty vector, pcDNA3 encoding the HA-CRF1R or the HA-CRF1R-Δ386 mutant. […]
as §6
as §4, with “Figure 2 CRF-induced ERK1/2 phosphorylation is dependent on Gi protein. […] Total” for “Total”, “experiments. […]” for “experiments.”
Total cell lysates were separated by SDS-PAGE and analyzed by immunoblotting with anti-p-ERK1/2 Thr202/Tyr204, as described in materials and methods. […]

[6] = test system: CRF1R-mediated Akt phosphorylation; assay: CRF-induced Akt phosphorylation at Ser473 in COS-7 cells expressing HA-CRF1R; type: cell-based, human; conditions: 100 nM CRF, 5 min
Protocol: as §1, §2
as §3, with “After blots were probed with horseradish peroxidase-conjugated secondary antibody, protein bands were visualized with enhanced chemiluminescence ECL reagent (Amersham Pharmacia Biotech, Piscataway, NJ or Pierce Biotechnology, Rockford, IL) and scanned using the GS-800 Calibrated Imaging Densitometer (Bio-Rad).” left out
Figure 7 CRF mediates Akt activation. […] Total cell lysates were separated by SDS-PAGE and analyzed by immunoblotting with anti-p-Akt Ser^473, as described in Materials and Methods. Akt phosphorylation was quantitated by densitometry, and mean values were plotted from three to five independent experiments. […]

[7] = test system: endogenous EGFR in COS-7 cells; assay: EGF-stimulated ERK1/2 phosphorylation in COS-7 cells expressing HA-CRF1R; type: cell-based
Protocol: COS-7 cells (from the American Type Culture Collection) were cultured at 37°C in a humidified atmosphere of 95% air, 5% CO2, in DMEM supplemented with 10% FBS, 100 μg/ml streptomycin, and 100 units/ml penicillin (COS-7 growth medium). Transient transfections were performed using LipofectAMINE (Life Technologies: Gaithersburg, MD) as described previously ([27]). Cells were seeded at 8 × 10^5 cells/10-cm dish in COS-7 medium and cultured for 3 days before transfection. COS-7 cells were transfected in 5 ml/dish OptiMEM containing 10 μg/ml LipofectAMINE with empty vector, pcDNA3 encoding the HA-CRF1R or the HA-CRF1R-Δ386 mutant. […] After replacing the transfection medium with fresh growth medium, transfected COS-7 cells were cultured for 1 day. […]
as §6, §5

Sequence of epidermal growth factor (P01133 971-1023): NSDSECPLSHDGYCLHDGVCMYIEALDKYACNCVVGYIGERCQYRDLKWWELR

Nc1ncnc2c1ncn2[C@@H]1O[C@@H]2COP(O)(=S)O[C@H]2[C@H]1O (some centres unmarked) [Rp-cAMP]
effect on CRF-stimulated ERK1/2 activation ([1]; Rp-cAMP 0–100 μM, 30 min pretreatment, 100 nM CRF, 5 min): the magnitude of CRF1R-mediated activation of ERK1/2 was similar

epidermal growth factor receptor
fold increase of co-precipitated EGFR over control (100 nM CRF, 10 min, against unstimulated cells) [2]: 2.5 fold

CNC(=O)[C@H](Cc1ccccc1)NC(=O)[C@H](CC(C)C)[C@H](CSc1cccs1)C(=O)NO [batimastat]
effect on basal and CRF-stimulated ERK1/2 phosphorylation ([1]; batimastat 5 μM, 30 min pretreatment, 100 nM CRF, 5 min): not altered

epidermal growth factor (from UniProt P01133 971-1023) (ligand)
EC50 of EGF-induced ERK1/2 phosphorylation, COS-7 cells (endogenous EGFR), EGF 0-100 ng/ml for 10 min, immunoblot densitometry [3]: 0.23 ng/mL

CNC(=O)[C@H](Cc1c[nH]c2ccccc12)NC(=O)[C@@H](CC(=O)NO)CC(C)C [GM6001]
effect on EGF-induced ERK1/2 phosphorylation [4]: significantly attenuated ERK1/2 phosphorylation induced by PMA but not EGF
effect on PMA-induced ERK1/2 phosphorylation [5]: significantly attenuated ERK1/2 phosphorylation induced by PMA
effect on basal and CRF-stimulated ERK1/2 phosphorylation ([1]; GM6001 0–20 μM, 30 min pretreatment, 100 nM CRF, 5 min): not altered

COc1cc2ncnc(Nc3cccc(Cl)c3)c2cc1OC [AG1478]
decrease of CRF-stimulated Akt phosphorylation ([6]; AG1478 100 nM): 25%
effect on CRF-stimulated ERK1/2 phosphorylation ([1]; AG1478 100 nM, 100 nM CRF, 5 min): abolished phosphorylation of ERK1/2
IC50 ([1]; COS-7, AG1478 0–1,000 nM, 30 min pretreatment, 100 nM CRF, 5 min, read-out: IC50, inhibition of CRF-stimulated ERK1/2 phosphorylation): 10 nM
inhibition at 0.1 µM ([1]; Homo sapiens, COS-7, 100 nM AG1478, 30 min pretreatment, 100 nM CRF, 5 min, read-out: inhibition of CRF-induced maximal ERK1/2 phosphorylation): ~80%

EGF: epidermal growth factor
persistence of ERK1/2 phosphorylation ([7]; 10 ng/ml EGF): at least 30 min
EC50 for EGF-induced ERK1/2 phosphorylation ([7]; EGF 0–100 ng/ml, 10 min): 0.23 ng/mL

dn-Akt: plasmid pUSEamp encoding dominant-negative Akt-K179M
effect on ERK1/2 activation by CRF ([1]; dn-Akt (K179M) co-transfection, 100 nM CRF): had no significant effect on ERK1/2 activation after stimulation with CRF

c-Src (enzyme)
fold increase of co-precipitated Src over control (100 nM CRF, 10 min, against unstimulated cells) [2]: 8 fold

O=c1cc(N2CCOCC2)oc2c(-c3ccccc3)cccc12 [LY294002]
effect on CRF1R-mediated Akt signaling activation ([6]; LY294002 10 μM, 30 min pretreatment): abolished CRF1R-mediated Akt signaling activation
effect on CRF-stimulated phosphorylation of ERK1/2 ([1]; LY294002 pretreatment (discussion)): inhibited CRF-stimulated phosphorylation of ERK1/2 and Akt
